The record followed here is ChEMBL document CHEMBL5584266, “Novel selective proline-based peptidomimetics for human cathepsin K inhibition” (Bioorg Med Chem Lett, 2024).

pKi: −log10 of the molar value.

Experiment [1] addresses Procathepsin L (Homo sapiens, UniProt P07711). Kind of experiment: Binding affinity to human Cathepsin L assessed as inhibition constant. The note with it: for Ki: read-out: pKi (converted).
Experiment [2] addresses T1, Cathepsin K (Homo sapiens, UniProt P43235).
T1 sequence (P43235 whole entry): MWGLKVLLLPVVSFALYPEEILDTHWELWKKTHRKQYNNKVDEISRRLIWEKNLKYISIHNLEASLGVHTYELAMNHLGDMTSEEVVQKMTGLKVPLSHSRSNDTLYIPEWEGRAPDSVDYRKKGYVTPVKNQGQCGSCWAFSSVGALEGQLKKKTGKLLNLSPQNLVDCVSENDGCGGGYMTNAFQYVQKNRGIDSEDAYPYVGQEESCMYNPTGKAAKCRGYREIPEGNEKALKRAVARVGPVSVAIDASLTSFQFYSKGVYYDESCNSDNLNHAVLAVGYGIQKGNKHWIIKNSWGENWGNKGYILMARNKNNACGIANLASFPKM
Kind of experiment: Binding affinity to human Cathepsin K assessed as inhibition constant.

Experiment [3] concerns the target Cathepsin B (Homo sapiens, UniProt P07858). Kind of experiment: Binding affinity to human Cathepsin B assessed as inhibition constant.
In experiment [4] the target is Cathepsin S (Homo sapiens, UniProt P25774). The experiment in a line: Binding affinity to human Cathepsin S assessed as inhibition constant.
Cathepsin S, sequence (P25774 whole entry): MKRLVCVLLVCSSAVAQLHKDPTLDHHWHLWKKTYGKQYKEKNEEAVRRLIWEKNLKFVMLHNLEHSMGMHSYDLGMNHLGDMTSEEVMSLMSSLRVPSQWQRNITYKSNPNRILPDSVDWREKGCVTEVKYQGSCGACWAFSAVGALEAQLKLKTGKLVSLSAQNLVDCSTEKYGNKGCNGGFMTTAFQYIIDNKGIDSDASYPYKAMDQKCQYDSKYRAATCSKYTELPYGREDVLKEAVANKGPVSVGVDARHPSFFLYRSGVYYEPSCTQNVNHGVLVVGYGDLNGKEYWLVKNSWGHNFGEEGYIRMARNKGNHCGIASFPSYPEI

Procathepsin L, sequence (P07711 whole entry): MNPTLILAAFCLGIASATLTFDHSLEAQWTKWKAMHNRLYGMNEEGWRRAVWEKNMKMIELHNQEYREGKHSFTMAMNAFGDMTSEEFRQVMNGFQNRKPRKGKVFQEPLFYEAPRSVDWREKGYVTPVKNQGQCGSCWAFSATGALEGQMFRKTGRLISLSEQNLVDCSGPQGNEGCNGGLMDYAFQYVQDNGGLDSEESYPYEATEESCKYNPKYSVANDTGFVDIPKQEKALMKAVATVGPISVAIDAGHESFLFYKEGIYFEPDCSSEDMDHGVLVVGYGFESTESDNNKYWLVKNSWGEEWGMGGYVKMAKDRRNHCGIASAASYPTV

Take `CC(C)C[C@H](NC(=O)c1cc(C(C)(C)C)nn1C)C(=O)NC1(C#N)CC1`: the pKi (in general, the negative decadic logarithm of the Ki, by convention in mol/L) in experiment [1] (read-out: Ki) was approximately 8.10; in experiment [2] (read-out: Ki), approximately 8.10; in experiment [3], less than 4.00; in experiment [4] it was 7.10. Besides, in experiment [1], the Ki is 0.00158 µM.

Turning to `C[C@H]1C[C@@H](C(=O)NC2(C#N)CC2)N(S(=O)(=O)c2cc(C(F)(F)F)nn2C)C1`, the Ki in experiment [1] was more than 100 µM. Moreover, the pKi in experiment [3] is less than 4.00.

Consider `CC(C)(F)C[C@H](N[C@@H](c1ccc(-c2ccc(S(C)(=O)=O)cc2)cc1)C(F)(F)F)C(=O)NC1(C#N)CC1` [ODANACATIB], for which the Ki in experiment [2] (read-out: pKi (converted)) is 0.0002 µM.

On to `C[C@H]1C[C@@H](C(=O)NC2(C#N)CC2)N(C(=O)c2cc(C(C)(C)C)nn2C)C1`, for which the Ki in experiment [1] is more than 100 µM. For the same compound, in experiment [3], the pKi is less than 4.00.

Take `C[C@H]1C[C@@H](C(=O)NC2(C#N)CC2)N(C(=O)Cc2ccccc2)C1`: the Ki in experiment [1] was more than 100 µM. The pKi in experiment [3] is less than 4.00.

For the compound `C[C@H]1C[C@@H](C(=O)NC2(C#N)CC2)N(C(=O)c2ccccc2)C1`, the Ki in experiment [1] is more than 100 µM. The pKi in experiment [3] is less than 4.00.

Consider `C[C@H]1C[C@@H](C(=O)NC2(C#N)CC2)N(C(=O)OC(C)(C)C)C1`, for which the Ki in experiment [1] was more than 100 µM. The pKi in experiment [3] is less than 4.00.

Take `C[C@H]1C[C@@H](C(=O)NC2(C#N)CC2)N(C(=O)c2cc(C(F)(F)F)nn2C)C1`: the Ki in experiment [1] was more than 100 µM. Further, the pKi in experiment [3] was less than 4.00.
